Values joined by “and” are separate entries in the source; they are usually repeats but may differ in a detail not shown here. Identical values can stand only once.
System: 598228-144-R-J1-PDC complex spheroid viability
Test: Anticancer human tumor 598228-144-R-J1-PDC patient-derived serous endometrial adenocarcinoma cell line growth inhibition [GQUAD]
Settings: for viability, T/C: stronger effect = lower value
Source text: DNA G-quadruplex Stabilizer Agents in Combinations in Complex Spheroids
A high-throughput screen of multi-cell type tumor spheroids was designed to identify active combinations of DNA G-quadruplex stabilizer agents and targeted small molecules. Complex spheroids include a stromal component modeled by human endothelial cells (HUVEC) and fibroblasts modeled by human mesenchymal stem cells (MSCs). The concentration ranges selected for each drug and investigational agent were based upon clinically achievable concentrations if the clinical Cmax of the agent was known.
Compounds. The drugs and investigational agents: pidnarulex (CX-5461; NSC782164), APTO-253 (NSC789042), BRACO-19 (NSC847499), peposertib (NSC802822), ceralasertib (NSC780249), elimusertib (NSC800525), camonsertib (NSC841442), AZD-1390 (NSC803789), olaparib (NSC753686), talazoparib (NSC767125), ART-558 (NSC835418), sotorasib (NSC818433), MRTX-1133 (NSC836407), SN-38 (NSC673596), topotecan (NSC609699), etoposide (NSC141540), doxorubicin (NSC123127), gemcitabine (NSC613327), 5-fluorouracil (NSC19893), paclitaxel (NSC125973), vemurafenib (NSC761431), panobinostat (NSC761190), R-306465 (JNJ-16241199; NSC773264), adavosertib (NSC754352), TP-3654 (NSC805149), carboplatin (NSC241240), KSQ-4279 (NSC840948), and staurosporine (NSC755774) were obtained from the National Cancer Institute (NCI) Developmental Therapeutics Program Chemical Repository (34). The FDA-approved anticancer drug set is available from the NCI Developmental Therapeutics Program. […] The stock solutions were prepared in dimethyl sulfoxide (DMSO, Sigma-Aldrich, St. Louis, MO, cat. D2650) at 800-fold the tested concentration and stored at -70 degrees C prior to their use. All drugs and investigational agents were tested over a range starting from a high concentration at or near the clinical Cmax and decreasing in half-log increments. If the clinical Cmax for an agent had not been determined, the highest concentration tested was 10 microM.
2.3 Cell Culture. All cells were maintained in an incubator at 37 degrees C and 5% CO2 with 95% humidity. The PDC lines were cultured according to standard operating procedures established by the NCI PDMR. All PDCs were thawed and cultured in Matrigel-coated flasks prepared with a working solution of 1X Ham's F-12 nutrient mix, without supplementation (Invitrogen, cat. 11765054), 100 U/mL penicillin-streptomycin (Invitrogen, cat. 15140122), and 2.5% Matrigel (Corning Inc., cat. 354248) for the first three passages. The 857933-349-R-J2-PDC line was cultured in 6C/Colon 1B media, which includes advanced DMEM/F-12 (Thermo Fisher Scientific, cat. 12634028), 10 mM HEPES (Thermo Fisher Scientific, cat. 15630080), 1X GlutaMAX supplement (Thermo Fisher Scientific, cat. 35050061), 0.1 mg/mL primocin (InvivoGen, cat. ant-pm-2), 10% defined fetal bovine serum, heat inactivated (HyClone Laboratories Inc., cat. SH30070.03HI), 50% L-WRN conditioned media (ATCC, cat. CRL-3276), 1.25 mM N-Acetyl-L-cysteine (Sigma-Aldrich, cat. A9165), 10 mM nicotinamide (Sigma-Aldrich, cat. N0636), 1X B-27 supplement (Thermo Fisher Scientific, cat. 17504044), 1X N-2 supplement (Thermo Fisher Scientific, cat. 17502048), 10 microM Y-27632 dihydrochloride (Tocris Bioscience, cat. 1254), and 50 ng/mL human EGF recombinant protein (Thermo Fisher Scientific, cat. PHG0311). The 485176-168-R4-J1-PDC line was cultured in Panc media, which includes all 6C/Colon 1B media components plus 100 ng/mL human FGF-10 (Thermo Fisher Scientific, cat. 100-26), 500 nM SB-431542 (Selleckchem, cat. S1067), and gastrin (Tocris, cat. 3006).
[…]
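Note: spheroids exposed to the agents for one week before reading.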
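Throughout, for viability, T/C: percent of vehicle DMSO control viability so 100% = untreated growth.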

Cc1cccc(N(C)C(=O)C2C(O)CCN2c2nc(C)cc(C(F)(F)F)c2C#N)c1 (stereo not drawn)
viability, T/C (compound 0.0316 µM): 108% and 89.4% and 98.2% | viability, T/C (compound 0.1 µM): 92.7% and 78% and 99.4% | viability, T/C (compound 0.316 µM): 97.2% and 122% and 88.8% | viability, T/C (compound 1 µM): 99.8% and 91.5% and 99.9% | viability, T/C (compound 3.16 µM): 97.1% and 94.7% and 111% | viability, T/C (compound 10 µM): 93.6% and 88.1% and 102% | IC50 (curve of compound): > 10 µM

COc1ccc([C@@H](O)c2cc(-c3ncnc4cc(N5CCOCC5)ccc34)c(F)cc2Cl)nn1
viability, T/C (compound 0.0316 µM): 97.8% and 102% and 84.3% | viability, T/C (compound 0.1 µM): 90% and 101% and 85.3% | viability, T/C (compound 0.316 µM): 89.9% and 67.4% and 82.6% | viability, T/C (compound 1 µM): 74.7% and 62.1% and 82.8% | viability, T/C (compound 3.16 µM): 52.1% and 42.8% and 49.9% | viability, T/C (compound 10 µM): 32.1% and 30% and 30.5% | IC50 (curve of compound): 3.6 µM and 1.8 µM and 3.15 µM

COc1cc(C2c3cc4c(cc3C(OC3OC5COC(C)OC5C(O)C3O)C3COC(=O)C23)OCO4)cc(OC)c1O (stereo not drawn) + CN(C)c1ccc(Nc2c3ccc(NC(=O)CCN4CCCC4)cc3nc3cc(NC(=O)CCN4CCCC4)ccc23)cc1
IC50 (curve of first compound, second compound 0.0316 µM): 8.17 µM | IC50 (curve of first compound, second compound 0.1 µM): 5.14 µM | IC50 (curve of first compound, second compound 0.316 µM): 5.39 µM | IC50 (curve of first compound, second compound 1 µM): 0.898 µM | IC50 (curve of first compound, second compound 3.16 µM): 5.14 µM | IC50 (curve of first compound, second compound 10 µM): 0.471 µM | viability, T/C (second compound 0.0316 µM, first compound 0.0316 µM): 114% | viability, T/C (second compound 0.0316 µM, first compound 0.1 µM): 105% | viability, T/C (second compound 0.0316 µM, first compound 0.316 µM): 75.5% | viability, T/C (second compound 0.0316 µM, first compound 1 µM): 65.5% | viability, T/C (second compound 0.0316 µM, first compound 3.16 µM): 71.5% | viability, T/C (second compound 0.0316 µM, first compound 10 µM): 42.1% | viability, T/C (second compound 0.1 µM, first compound 0.0316 µM): 102% | viability, T/C (second compound 0.1 µM, first compound 0.1 µM): 84.2% | viability, T/C (second compound 0.1 µM, first compound 0.316 µM): 78.6% | viability, T/C (second compound 0.1 µM, first compound 1 µM): 61.3% | viability, T/C (second compound 0.1 µM, first compound 3.16 µM): 61.5% | viability, T/C (second compound 0.1 µM, first compound 10 µM): 40.3% | viability, T/C (second compound 0.316 µM, first compound 0.0316 µM): 103% | viability, T/C (second compound 0.316 µM, first compound 0.1 µM): 95% | viability, T/C (second compound 0.316 µM, first compound 0.316 µM): 70.8% | viability, T/C (second compound 0.316 µM, first compound 1 µM): 61.6% | viability, T/C (second compound 0.316 µM, first compound 3.16 µM): 65.4% | viability, T/C (second compound 0.316 µM, first compound 10 µM): 39.6% | viability, T/C (second compound 1 µM, first compound 0.0316 µM): 93.6% | viability, T/C (second compound 1 µM, first compound 0.1 µM): 114% | viability, T/C (second compound 1 µM, first compound 0.316 µM): 71.3% | viability, T/C (second compound 1 µM, first compound 1 µM): 55.9% | viability, T/C (second compound 1 µM, first compound 3.16 µM): 54.9% | viability, T/C (second compound 1 µM, first compound 10 µM): 32.5% | viability, T/C (second compound 3.16 µM, first compound 0.0316 µM): 95% | viability, T/C (second compound 3.16 µM, first compound 0.1 µM): 75.6% | viability, T/C (second compound 3.16 µM, first compound 0.316 µM): 80% | viability, T/C (second compound 3.16 µM, first compound 1 µM): 56.4% | viability, T/C (second compound 3.16 µM, first compound 3.16 µM): 70.3% | viability, T/C (second compound 3.16 µM, first compound 10 µM): 35.7% | viability, T/C (second compound 10 µM, first compound 0.0316 µM): 92.9% | viability, T/C (second compound 10 µM, first compound 0.1 µM): 71.8% | viability, T/C (second compound 10 µM, first compound 0.316 µM): 53% | viability, T/C (second compound 10 µM, first compound 1 µM): 40.7% | viability, T/C (second compound 10 µM, first compound 3.16 µM): 60.3% | viability, T/C (second compound 10 µM, first compound 10 µM): 34.9%

CCc1c2c(nc3ccc(O)cc13)-c1cc3c(c(=O)n1C2)COC(=O)[C@]3(O)CC
viability, T/C (compound 0.000999 µM): 72.2% and 58.7% and 67.3% | viability, T/C (compound 0.00316 µM): 58.9% and 53.5% and 66.5% | viability, T/C (compound 0.00999 µM): 59.5% and 47.4% and 56.2% | viability, T/C (compound 0.0316 µM): 43.9% and 44.5% and 44.3% | viability, T/C (compound 0.0999 µM): 28.2% and 31% and 38.2% | viability, T/C (compound 0.316 µM): 19.5% and 18.4% and 18.3% | IC50 (curve of compound): 0.0173 µM and 0.0083 µM and 0.0232 µM

— PubChem BioAssay AID2060506 (Molecular Pharmacology Branch, DTP, NCI, 2025)
